Experimental data reported in PMC5592639 (ACS combinatorial science, 2016).

Assays:
Type in all cases: cell-based
[1] = system: H460 (human non-small cell lung carcinoma cells); assay: Cytotoxicity against H460; settings: NCI-H460
[2] = system: H460TaxR (paclitaxel-resistant human non-small cell lung carcinoma cells); assay: Cytotoxicity against H460TaxR; settings: H460/TaxR
[3] = system: normal human fibroblasts NHFB; assay: Cytotoxicity against normal human fibroblasts; settings: Fibroblast

SMILES: CC(=O)O[C@H]1C(=O)[C@@]2(C)[C@H]([C@H](OC(=O)c3ccccc3)[C@]3(O)C[C@H](OC(=O)[C@H](O)[C@@H](NC(=O)c4ccccc4)c4ccccc4)C(C)=C1C3(C)C)[C@]1(OC(C)=O)CO[C@@H]1C[C@@H]2O [PTX, paclitaxel]
- EC50 [1]: 0.006 ± 0.002 µM
- EC50 [2]: 0.8 ± 0.4 µM
- EC50 [3]: 0.05 ± 0.03 µM
